Laboratory results published in PMC8220083 (Frontiers in Pharmacology, 2021).
Where “and” joins values, the source holds several entries; their conditions need not be identical. Equal values may be shown once. Read-outs that look alike come from different tables or passages of the source. Each block holds one compound with its values, some of them ahead of it.

Columns and labels:
[1] = target: T1, Human leukocyte elastase (HLE-G) (Homo sapiens, UniProt P08246); test: Inhibition of HLE-G enzymatic activity; format: biochemical; conditions: for IC50: compound vs. HLE-G (75 µM), 10 min at 37°C, 5 min with substrate; for HLE-G Molar excess: molar excess of compound to HLE-G at IC50
T1 construct: purchased Athens Research & Technology 16-14-051200
T1 sequence (P08246 30-267): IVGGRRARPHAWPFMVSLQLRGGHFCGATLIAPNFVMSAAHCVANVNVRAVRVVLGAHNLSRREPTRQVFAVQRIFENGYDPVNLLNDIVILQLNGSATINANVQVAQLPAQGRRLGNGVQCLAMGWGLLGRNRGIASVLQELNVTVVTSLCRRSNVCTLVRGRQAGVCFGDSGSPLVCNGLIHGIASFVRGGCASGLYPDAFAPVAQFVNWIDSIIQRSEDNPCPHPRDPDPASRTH
Method: Inhibition of HLE-G enzymatic activity. Two-fold serial dilutions of HLE-G in 100 µl Tris-buffered saline (pH 7.8) were added to rows of wells of a microtiter plate as previously described ([Bristow et al., 1991]). […] The microtiter plate was incubated for 10 min at 37°C. The HLE-G substrate (Succinyl-L-Ala-L-Ala-L-Ala-p-nitroanilide, Sigma) was added to all wells, and absorbance at 405 nm was detected kinetically at 23°C using an MRX plate reader.

[2] = target: T2, cell surface human leukocyte elastase (HLE-CS) on U937 Clone 10 cells (Homo sapiens, UniProt P08246); test: Cellular adherence to glass (HLE-CS interaction); format: cell-based; conditions: 2,000 U937 cells per well; for HLE-CS Adherent cells: at optimal concentration; for HLE-CS Optimal concentration: optimal adherence concentration
T2 construct: endogenous in cells; host or cells: human U937 Clone 10 cells
T2 sequence (P08246 30-267): T1 sequence (P08246 30-267)
From the text: Cellular adherence. […] […] Unattached cells were removed by washing using AIM-V, and attached cells were fixed by application of 4% paraformaldehyde. Attached cells were counted by light microscopy.

[3] = tested on: E. coli DH5-Alpha; test: Kirby-Bauer Disk Test of antibiotic activity; format: cell-based; conditions: for diameter of zone of inhibition: 16 h at 37°C; for inhibitory dose: disk test
Method: Antibiotic activity. […] D-Ampicillin-sensitive E. coli DH5-Alpha was cultured overnight in LB broth, and the cell concentration was calibrated using McFarland Turbidity Standard […] for <300 × 10^6 CFU. At this concentration of cells, bacteria were spread on Mueller-Hinton agar plates. […] After incubation for 16 h at 37°C, plates were examined for zones of inhibition.

[4] = Diet-induced obesity (DIO) mouse model, lipoprotein levels; format: in vivo, C57BL/6J mice; conditions: 60% fat diet, daily oral gavage; for LDL levels: after 3 weeks, ezetimibe 10 mg/kg, Alphataxin 5 mg/kg; for LDL levels / triglyceride levels: vs vehicle control; for triglyceride levels: weeks 3, 6, 8
Method: Animal Studies. Animal studies were performed by Jackson Laboratory (Bar Harbor, ME), an OLAW-Assured and AAALAC accredited institution. All research was reviewed and approved by the Institutional Animal Care and Use Committee (IACUC) prior to commencing. The study used 16–17 weeks old male DIO C57BL/6J mice that had been maintained on a 10% (control) or 60% high-fat diet. […] Treatment was delivered by daily oral gavage at the same time of day for 12 weeks. Blood was collected by retro-orbital bleed every 3 weeks for measurement of total cholesterol, LDL, HDL, triglycerides, […] free fatty acids and glucose using the Beckman Coulter AU680 Chemistry System.
Food consumption was monitored twice weekly, and body weight was monitored weekly. As mice gained weight on the 60% high-fat diet during the study, dosing was adjusted accordingly. Mice were monitored for adverse effects (e.g., labored breathing, aberrant weight change). Three mice were lost during the study. […] The mice lost in the ezetimibe group were due to a severe bite wound and an unknown causes. The mouse lost in the Alphataxin group was due to an abnormal amount of gas in the stomach attributed to a gavaging error.

[5] = tested on: U937 Clone 10 cells; test: Receptor polarization and endocytosis of SHIV; format: cell-based, human; conditions: for SHIV localization: cells preconditioned 15 min 37°C
Method: Receptor Polarization and Endocytosis. To Eppendorf tubes that been precoated with RPMI-1640 containing 10% fetal bovine serum to prevent attachment, were added 250 μl containing 5 × 10^5 U937 Clone 10 cells.
U937 Clone 10 cells were pulsed with SHIV particles (30 ng p27 or p24 per 10^6 cells) for 2 h at 2°C, a circumstance that allows binding, but prevents endocytosis. Alternatively, cells were pulsed with virus for 2 h at 37°C, a circumstance that allows binding and endocytosis ([Bristow et al., 2012]). Following pulsing for 2 h, cells were pelleted, resuspended in AIM-V and allowed to adhere to Alcian blue coated microscope slides for 8 min at 4°C, washed, and fixed using 4% paraformaldehyde as previously described ([Frank et al., 2002]). The presence of AT-2 virus in test cells was detected using dodecameric human CD4-IgG1 provided by the Laboratory of Immunoregulation, NIAID, NIH. This reagent specifically recognizes conformationally intact HIV/SIV envelope gp120. CD4-IgG1 was detected using rabbit anti-human IgG conjugated with horse radish peroxidase (SigmaAldrich). CD4-IgG-labeled cells were coupled to Oregon 488 fluorochrome using the tyramide signal amplification system (Life Science Products, Boston, MA, United States). In some cases, cells stained on slides were permeabilized using 0.05% saponin during the blocking step and further stained with the nuclear staining dye, 4′,6-diamidino-2-phenylindole (DAPI), mounted, and examined by epifluorescence microscopy using a Zeiss Axioplan to detect positive and negative reactions. Representative samples of positive and negative reactions were subsequently captured by confocal microscopy using a Perkin Elmer Operetta High Content Imaging System. Cells were analyzed by confocal microscopy using 2 μm scanning from the attached surface toward the unattached surface.

[6] = format: in vivo, human; conditions: HIV-1-infected, 8 weekly infusions 120 mg/kg
Method: Clinical trial NCT01731691: This clinical trial was a double-blind, randomized study as previously described ([Bristow et al., 2019]). Written informed consent was received from 12 individuals, 8 HIV-1-infected individuals and 4 uninfected controls. Blood was collected weekly at the same time of day at baseline and for 8 subsequent weeks from uninfected, untreated controls and from HIV-1-infected individuals who were treated weekly with Prolastin-C (n = 3) or with placebo (n = 5). […] Inclusion criteria HIV-1 uninfected, untreated controls were the same as for HIV-1 infected subjects excluding HIV-related criteria. Grifols Biotherapeutics contributed a sufficient quantity of Prolastin-C (lot# 26NLK52) for administration of 8 weekly infusions at a dose of 120 mg/kg. The study protocol was approved by Copernicus Group Independent Institutional Review Board, Durham, NC. Drug delivery and blood collection were performed at ACRIA, New York, NY.
Human apolipoproteins measurement. Total cholesterol, high density lipoprotein (HDL), low density lipoprotein (LDL), triglycerides, apolipoprotein E (apoE), and apolipoprotein A1 (apoA1) measurements were performed by ICON Central Laboratory, Farmingdale, NY. Cholesterol, HDL, and triglycerides were measured using the Chol2, HDLC3, TRIGL methods on the Roche/Hitachi cobas c analyzer. LDL was calculated using the formula total cholesterol – HDL – (triglycerides/5). ApoE was quantitated using the Kamiya Biomedical Co. K-assay immunoturbidimetric method. ApoA1 was quantitated using the Siemens N antisera method by immunonephelometry on the BN II and BN ProSpec System. Total apoB and apoB48 measurements were contracted by ICON Central Laboratory to Nexelis (formerly Pacific Biomarkers). Total apoB was measured in serum by immunoturbidimetry using the Roche Modular P instrument and Goat polyclonal antibody specific for human apoB. ApoB48 wase measured by sandwich ELISA using a capture monoclonal antibody and detection using a biotin-conjugated polyclonal antibody followed by HRP-conjugated Streptavidin and addition of a chromogenic substrate using a SoftMax Pro ELISA plate reader. ApoB100 was calculated as total apoB minus apoB48. Cholesterol, triglycerides, HDL, LDL, apoE and apoA1 were measured by ICON Central Laboratory, Farmingdale, NY.

[7] = design: method as in Nissen et al., 2016; conditions: ref Nissen et al., 2016, cited from earlier work
[8] = tested on: Leishmania amazonensis promastigotes; design: method as in Andrade-Neto et al., 2016; conditions: ref Andrade-Neto et al., 2016; read-out: IC50 for killing Leishmania amazonensis promastigotes; cited from earlier work
[9] = tested on: Lactobacillus spp.; design: method as in Catry et al., 2015; conditions: ref Catry et al., 2015; cited from earlier work

IC50 [1]: 262 µM
HLE-G Molar excess [1]: 3.5
HLE-CS Adherent cells [2]: 30 ± 4
HLE-CS Optimal concentration [2]: 10 nM
Compound: CC1(C)S[C@@H]2[C@H](NC(=O)COc3ccccc3)C(=O)N2[C@H]1C(=O)O [Pen V, Penicillin V]

MIC ([3]; extrapolated from 10-fold greater minimum inhibitory dose than D-ampicillin): ≥ 80 µg/mL
Compound: CC1(C)S[C@@H]2[C@H](NC(=O)[C@@H](N)c3ccccc3)C(=O)N2[C@H]1C(=O)O [Alphataxin]
antibiotic effectiveness against E. coli [3]: not an effective antibiotic against E. coli
diameter of zone of inhibition ([3]; 0.05 mM): 1.5 cm
diameter of zone of inhibition ([3]; 0.5 mM): 2.8 cm
diameter of zone of inhibition ([3]; 5 mM (Figure 2 legend)): 1.5 cm
diameter of zone of inhibition ([3]; 50 mM (Figure 2 legend)): 2.8 cm
inhibitory dose [3]: ≥ 0.05 mM and ≥ 17.5 μg/ml
LDL levels [4]: significantly decreased
LDL lowering compared with ezetimibe ([4]; p = 0.90): equivalent to ezetimibe
triglyceride levels [4]: significantly lowered
cellular locomotion and endocytosis [5]: mimics α1PI activity by binding to HLE-CS and inducing cellular locomotion and endocytosis
SHIV localization ([5]; SHIV 2 h at 2°C): SHIV detected only on the exterior plasma membrane of polarized cells, never internalized into the cells
SHIV localization ([5]; SHIV 2 h at 37°C): SHIV was detected internal to the cells

IC50 [1]: 234 µM
HLE-G Molar excess [1]: 3.1
HLE-CS Adherent cells [2]: 33 ± 4
HLE-CS Optimal concentration [2]: 1 nM
Compound: C[C@H]1[C@H](NC(=O)/C(=N\OC(C)(C)C(=O)O)c2csc(N)n2)C(=O)N1S(=O)(=O)O [Aztreonam]

IC50 [1]: 178 µM
HLE-G Molar excess [1]: 2.4
HLE-CS Adherent cells [2]: 52 ± 6
HLE-CS Optimal concentration [2]: 100 nM
Compound: C[C@@H](O)[C@H]1C(=O)N2C(C(=O)O)=C(S[C@@H]3CN[C@H](CNS(N)(=O)=O)C3)[C@H](C)[C@H]12 [Doripenem]

IC50 [1]: 167 µM
HLE-G Molar excess [1]: 2.2
HLE-CS Adherent cells [2]: 34 ± 8
HLE-CS Optimal concentration [2]: 1 nM
Compound: CO/N=C(\C(=O)N[C@@H]1C(=O)N2C(C(=O)O)=C(COC(N)=O)CS[C@H]12)c1ccco1 [Cefuroxine, Cefuroxime]

HLE-CS Adherent cells [2]: 27 ± 10
Compound: CC1=C(C(=O)O)N2C(=O)[C@@H](NC(=O)[C@H](N)c3ccccc3)[C@H]2SC1 [Cephalexin]

IC50 [1]: 203 µM
HLE-G Molar excess [1]: 2.7
HLE-CS Adherent cells [2]: 23 ± 4
HLE-CS Optimal concentration [2]: 10 nM
Compound: C[C@@H](O)[C@H]1C(=O)N2C(C(=O)O)=C([C@H]3CCCO3)S[C@H]12 [Faropenem]

Compound: Prolastin-C: sterile plasma-purified α1PI preparation from Grifols, lot# 26NLK52, infused weekly at 120 mg/kg
HDL levels [6]: decreased from above normal to below normal levels
apoA1 levels [6]: decreased from above normal to below normal levels
apoB48 levels [6]: decreased from above normal to below normal levels
apoB100 levels [6]: did not significantly decrease
apoE levels [6]: decreased from above normal to normal levels
total cholesterol levels [6]: decreased from above normal to normal levels
triglycerides levels [6]: decreased from above normal to normal levels
LDL levels ([6]; vs placebo arm): significantly lower than in the placebo arm

IC50 [1]: 232 µM
HLE-G Molar excess [1]: 3.1
HLE-CS Adherent cells [2]: 26 ± 9
HLE-CS Optimal concentration [2]: 1 nM
Compound: Cc1onc(-c2c(Cl)cccc2Cl)c1C(=O)N[C@@H]1C(=O)N2[C@@H]1SC(C)(C)[C@@H]2C(=O)O [Dicloxacillin]

IC50 [1]: 277 µM
HLE-G Molar excess [1]: 3.7
HLE-CS Adherent cells [2]: 40 ± 3
HLE-CS Optimal concentration [2]: 100 nM
Compound: O=C1[C@H](CC[C@H](O)c2ccc(F)cc2)[C@@H](c2ccc(O)cc2)N1c1ccc(F)cc1 [Ezetimibe]
effectiveness in lowering LDL levels vs PCSK9 inhibitors ([7]; p < 0.001): significantly less effective
individuals with muscle symptoms [7]: 28%
IC50 [8]: 30 µM
LDL levels [4]: significantly decreased
triglyceride levels [4]: did not
effect on intestinal microbiome [9]: increasing the Lactobacillus spp.

Compound: CC1(C)S[C@@H]2[C@H](NC(=O)[C@H](N)c3ccccc3)C(=O)N2[C@H]1C(=O)O [D-Ampicillin]
diameter of zone of inhibition ([3]; 0.005 mM): 1.4 cm
diameter of zone of inhibition ([3]; 0.5 mM): 3.8 cm
diameter of zone of inhibition ([3]; 5 mM (Figure 2 legend)): 3.0 cm
diameter of zone of inhibition ([3]; 50 mM (Figure 2 legend)): 3.8 cm
inhibitory dose [3]: ≥ 0.005 mM and ≥ 1.75 μg/ml

HLE-CS Adherent cells [2]: 54 ± 20
HLE-CS Optimal concentration [2]: 1 nM
Compound: CC1(C)S[C@@H]2[C@H](NC(=O)[C@H](N)c3ccc(O)cc3)C(=O)N2[C@H]1C(=O)O [Amoxicillin]
